The half-life is how long it takes for the measured level to halve.

Several values for one entry are separate records, joined by “and”; a condition that tells them apart may be missing. Equal entries are not always repeated.

Consider one molecule from PMC7719179, “Small molecule inhibition of Dynamin-dependent endocytosis targets multiple niche signals and impairs leukemia stem cells” (Nature Communications, 2020).

Data set [1] in a line: Pharmacokinetic analysis of serum levels after a single intraperitoneal dose. The format is in vivo. The following applies: ip, mouse, single intraperitoneal dose 30 mg/Kg. On the procedure:
All experiments were pre-approved by the University of Melbourne Animal Ethics Committee (Ethics ID: 0911153.1). […] Five different time points were chosen to measure drug level: 15, 30, 60 120 and 240 min after intraperitoneal injection of the recipients. At each time points, treated mice were killed by lethal injection of 0.01 mL/g of Lethobarb® (325 mg pentobarbitone sodium/mL). Following this, blood was collected via intra-cardiac puncture, blood was then allowed to clot at room temperature for 15 min, then centrifuged at 1500 × g for 6 min to separate out the cells and serum. The serum was collected, weighed, snap frozen in dry ice and stored at −80 °C.
Drug-free mouse serum was used as negative controls. Serum blanks, including calibration standard and quality control samples, were prepared by protein precipitation. Selectivity was evaluated by comparing chromatograms of six blank blood samples from six different sources to make sure there were no significant interfering peaks at retention time of analysis. The maximum serum concentration (Cmax) and the time to reach Cmax (Tmax) were directly obtained from the experimental data. The time needed for 50% reduction in the serum concentration (terminal half-life; T1/2) was calculated from the mean values (n = 5) using GraphPad Prism 8.

A further data set deals with Lmo2^Tg primary T-ALL. Description: Survival (Kaplan-Meier) and leukemia growth delay in recipients of Lmo2^Tg primary T-ALL. The format is in vivo, mouse. The following applies: * = non-leukemic at endpoint. On the procedure: Single-cell suspension of murine thymus cells were intravenously injected into sublethally irradiated (650 Rads) isogenic Ly5.1 (Cd45.1) mice. Fold expansion was calculated by dividing the absolute output number of donor-derived DN3a cells harvested at the experimental endpoint by the respective number of DN3a thymocytes injected in each recipient. Limiting dilution transplantations were performed as described, by injecting various doses (10^1 to 10^6) of thymocytes per recipient, and mice were scored positive when T-cell lineage reconstitution assessed 6 weeks after transplantation was >1%. Leukemia-propagating cell frequency was calculated by applying Poisson statistics using the ELDA: Extreme Limiting Dilution Analysis software (Walter and Eliza Hall Institute Bioinformatics, Parkville VIC, Australia)[96]. Limiting dilution transplantations were performed independently from any other transplantation assays, using thymocytes from three different Lmo2^Tg mice for each cohort. Kaplan–Meier survival and statistical analysis were performed using GraphPad Prism. 6.0 software (GraphPad Software Inc, San Diego CA, USA). […]
derived leukemic cells (%Cd45.2+) in the peripheral blood (PB) of recipients injected with Lmo2 Tg primary leukemias (T-ALL 582, n=5/cohort; T-ALL 273, n=7/cohort; T-ALL 249, n=5/cohort) treated with Dynole 34-2, VXL or combination therapy. […]

Data set [2] concerns ETP12 and ALL8 patient-derived xenografts. The data set can be described thus: Xenograft models of human T-ALL (ETP12, ALL8): leukemic burden in blood, bone marrow, spleen; spleen weight. It is filed as in vivo. The protocol:
Patient-derived xenograft models were established as previously described[97],[98]. All experiments were pre-approved by the Human Research Ethics Committee of the University of New South Wales (UNSW), the UNSW Animal Care and Ethics Committee, the Alfred Health Human Ethics Committee and the AMREP Animal Ethics Committee. For transplantation assays, 10^6 splenocytes harvested from successfully engrafted primary human ETP-ALL or T-ALL xenografts were injected into nonobese diabetic/severe combined immunodeficient (NOD.Cg-Prkdc^scid, also termed NOD/SCID) or NOD/SCID/Il2rg^tm1wjl/SzJ (NSG) mice[99]. Moreover, 1.5 × 10^6 cells splenocytes harvested from successfully engrafted patient-derived AML xenografts were injected into nonobese diabetic/severe immunodeficient (NOD.Cg-Rag1^tm1MomIl2rg^tm1wjl/SzJ, also termed NRG) mice expressing human IL-3, human GM-CSF and human SCF from the SGM3 triple transgene (NRGS)[100]. Engraftment into recipients was monitored by FACS analysis of peripheral blood as previously described. […] Both males and females were used. […] Kaplan–Meier survival and statistical analyses were performed using GraphPad Prism. 6.0 software (GraphPad Software, Inc.).
Spleen and sternum from recipients were collected, incubated at least 24 h in 3.7% neutral buffered formalin (pH 7.4), embedded in paraffin and sectioned at 8 μm onto Superforst-Plus slides. Samples were incubated with an anti-human CD45 antibody (Dako, #M0701) in Dako Autostainer Plus solution, then incubated with a sheep anti-mouse IgG conjugated to HRP and processed as per standard protocols using 3,3’ Diaminobenzidine staining (#ab64238, Abcam) for all immunoblots, as previously described. Samples were imaged and annotated using an Aperio ScanScope and software system (Leica Biosystems). […]
(blue circles) and ALL8 (red open circles) 24 hours after the last dose of drugs was administered.
therapy. Median is indicated (bar) with Mean ± SEM indicated for ETP12 and ALL8, 2-way ANOVA
period of administration is indicated in light grey.

On to `CCCCCCCCNC(=O)C(C#N)=Cc1cn(CCCN(C)C)c2ccccc12` [Dynole 34-2, 2-Cyano-N-octyl-3-(1-(3-dimethylaminopropyl)-1H-indol-3-yl)-acrylamide], for which the Cmax in data set [1] (read-out: average maximum concentration (Cmax) in serum) is more than 4 µM. For the same molecule, the half-life in data set [1] (read-out: estimated half-life in serum) was 30 min. The Time to leukemia is 3.7 weeks and 3 weeks and 3.4 weeks with Lmo2^Tg primary T-ALL (recipients of primary T-ALL 249); 4.1 weeks and 5.6 weeks and 5.7 weeks and 6 weeks and 6.3 weeks in the data set with Lmo2^Tg primary T-ALL (recipients of primary T-ALL 582). Further, the “Absolute numbers human CD45+ cells” value was 6540000 and 4120000 and 6090000 in data set [2] (ALL8, BM); 4510000 and 5170000 and 3540000 in data set [2] (ETP12, BM). Also, the “Proportion of hCD45+ (%) in peripheral blood” value in data set [2] (ALL8, Time (weeks) 1) is 1.0%; in data set [2] (ALL8, Time (weeks) 5), 2.0%; in data set [2] (ALL8, Time (weeks) 6), 64.0%; in data set [2] (ETP12, Time (weeks) 1) it was 0.1% and 0.0% and 0.2%; in data set [2] (ETP12, Time (weeks) 2) it was 0.2% and 0.1% and 0.3% and 0.0%; in data set [2] (ETP12, Time (weeks) 3) it was 2.8% and 0.4% and 7.0% and 8.6% and 4.0% and 0.0% and 0.2%. Besides, the “Proportion of hCD45+ (%) in peripheral blood” value in data set [2] (ETP12, Time (weeks) 7) was found to be 35.2%. Further, in data set [2] (ETP12 and ALL8 recipients, 24 h after last administration, in words), the “patient-derived leukemic cells in bone marrow and spleen, Dynole 34-2 combined with chemotherapy compared with chemotherapy alone” value is given as “at least tenfold less”. Also, the “leukemic cells in the peripheral blood, bone marrow and spleen, single agent” value in data set [2] (ETP12 and ALL8 xenografts, result in words) was “significant reduction in leukemic cells”. For the same molecule, the Spleen weight was 0.116 g and 0.076 g and 0.075 g in data set [2] (PDX ALL8); 0.157 g and 0.109 g and 0.091 g in data set [2] (PDX ETP12).
